The values that follow come from US10160747B2, “Compounds and methods for kinase modulation, and indications therefor” (Plexxikon Inc., priority 2016, dated 2018).

The target of the experiment is T1, FLT3-ITD (Homo sapiens, UniProt P36888).
T1 sequence (P36888 1-993): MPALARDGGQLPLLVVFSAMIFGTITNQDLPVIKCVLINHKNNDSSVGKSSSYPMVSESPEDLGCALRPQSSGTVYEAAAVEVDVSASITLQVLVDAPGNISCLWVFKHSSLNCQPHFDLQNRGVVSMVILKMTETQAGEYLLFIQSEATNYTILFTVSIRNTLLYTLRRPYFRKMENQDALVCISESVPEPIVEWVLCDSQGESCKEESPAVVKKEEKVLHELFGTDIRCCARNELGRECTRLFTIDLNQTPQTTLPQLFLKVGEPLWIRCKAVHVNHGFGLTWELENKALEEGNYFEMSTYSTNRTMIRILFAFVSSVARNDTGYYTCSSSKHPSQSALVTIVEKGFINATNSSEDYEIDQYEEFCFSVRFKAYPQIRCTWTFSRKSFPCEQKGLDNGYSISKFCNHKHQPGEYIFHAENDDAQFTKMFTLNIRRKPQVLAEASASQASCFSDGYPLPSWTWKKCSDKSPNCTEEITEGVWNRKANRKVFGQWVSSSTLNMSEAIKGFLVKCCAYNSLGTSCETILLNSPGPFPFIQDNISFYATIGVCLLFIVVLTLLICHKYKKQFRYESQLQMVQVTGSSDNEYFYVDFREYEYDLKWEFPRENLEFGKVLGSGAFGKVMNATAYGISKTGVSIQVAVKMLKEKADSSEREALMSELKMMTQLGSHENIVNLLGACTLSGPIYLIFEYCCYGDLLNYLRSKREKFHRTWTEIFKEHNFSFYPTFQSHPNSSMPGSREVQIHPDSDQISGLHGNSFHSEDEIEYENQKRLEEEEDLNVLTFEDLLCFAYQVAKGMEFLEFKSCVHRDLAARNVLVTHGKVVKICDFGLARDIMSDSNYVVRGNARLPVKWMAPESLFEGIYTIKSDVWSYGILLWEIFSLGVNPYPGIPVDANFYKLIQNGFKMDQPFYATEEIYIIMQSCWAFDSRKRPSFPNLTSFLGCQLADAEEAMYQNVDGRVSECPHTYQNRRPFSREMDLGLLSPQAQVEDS
As to the kind of experiment: FLT3-ITD recombinant enzyme kinase assay (AlphaScreen). The note with it: 8 pt; read-out: FLT3_ITD 8 pt: IC50. It counts as biochemical. Summed up:
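IC50 values come from AlphaScreen proximity signal: phosphorylated biotin-poly(Glu4-Tyr) (30 nM) bridges streptavidin donor and anti-phosphotyrosine PY20 acceptor beads. Enzyme reactions ran at 100 μM ATP for c-KIT versus 10 μM for both FLT3 mutants (ITD, D835Y); beads added in stop buffer, room temperature.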
Background: Alpha assays give light when donor and acceptor beads are brought close together.

pIC50: −log10 of the molar value.

By pIC50 is commonly meant the negative decadic logarithm of the IC50, by convention in mol/L. Consider `COCCn1cc(Nc2ncc(-c3ccc(CC(=O)Nc4ccc(C(F)(F)F)nc4)c(F)c3)cn2)cn1` [Compound P-0268, 2-[2-fluoro-4-[2-[[1-(2-methoxyethyl)pyrazol-4-yl]amino]pyrimidin-5-yl]phenyl]-N-[6-(trifluoromethyl)-3-pyridyl]acetamide], for which the pIC50 is 5.00 to 10.00.

With `COCCn1cc(Nc2ncc(-c3ccc(CC(=O)Nc4cnc(OC)c(C(F)(F)F)c4)cc3)cn2)cn1` [Compound P-0271, 2-[4-[2-[[1-(2-methoxyethyl)pyrazol-4-yl]amino]pyrimidin-5-yl]phenyl]-N-[6-methoxy-5-(trifluoromethyl)-3-pyridyl]acetamide], the negative-log IC50 (pIC50) is 5.00 to 10.00.

`COCCn1cc(Nc2ncc(-c3ccc(CC(=O)Nc4ccc(C(F)(F)F)nc4)cc3)cn2)cn1` [Compound P-0273, 2-[4-[2-[[1-(2-methoxyethyl)pyrazol-4-yl]amino]pyrimidin-5-yl]phenyl]-N-[6-(trifluoromethyl)-3-pyridyl]acetamide]: the pIC50 was 5.00 to 10.00.

As to `CCOc1n[nH]c2ncc(-c3ccc(CC(=O)Nc4cnc(OC)c(C(F)(F)F)c4)cc3)cc12` [Compound P-0213, 2-(4-(3-ethoxy-1H-pyrazolo[3,4-b]pyridin-5-yl)phenyl)-N-(6-methoxy-5-(trifluoromethyl)pyridin-3-yl)acetamide], the pIC50 is 5.00 to 10.00.

As to `Cn1cnc(Nc2ncc(-c3ccc(CC(=O)Nc4cc(C(F)(F)F)ccn4)cc3F)cn2)c1` [Compound P-0018, 2-[3-fluoro-4-[2-[(1-methylimidazol-4-yl)amino]pyrimidin-5-yl]phenyl]-N-[4-(trifluoromethyl)-2-pyridyl]acetamide], the pIC50 was 5.00 to 10.00.

As for `CCn1cc(Nc2ncc(-c3ccc(CC(=O)Nc4cnc(OC)c(C(F)(F)F)c4)c(F)c3)cn2)cn1` [Compound P-0259, 2-[4-[2-[(1-ethylpyrazol-4-yl)amino]pyrimidin-5-yl]-2-fluoro-phenyl]-N-[6-methoxy-5-(trifluoromethyl)-3-pyridyl]acetamide], the negative-log IC50 (pIC50) is 5.00 to 10.00.

Turning to `CCn1cc(Nc2ncc(-c3ccc(CC(=O)Nc4cnc(C)c(C(F)(F)F)c4)cc3)cn2)cn1` [Compound P-0254, 2-[4-[2-[(1-ethylpyrazol-4-yl)amino]pyrimidin-5-yl]phenyl]-N-[6-methyl-5-(trifluoromethyl)-3-pyridyl]acetamide], the pIC50 is 5.00 to 10.00.

Turning to `CCn1cc(Nc2ncc(-c3ccc(CC(=O)Nc4ccc(C(F)(F)F)cn4)cc3)cn2)cn1` [Compound P-0251, 2-[4-[2-[(1-ethylpyrazol-4-yl)amino]pyrimidin-5-yl]phenyl]-N-[5-(trifluoromethyl)-2-pyridyl]acetamide], the pIC50 is 5.00 to 10.00.

Turning to `O=C(Cc1ccc(-c2cnc(Nc3cnn(C(F)F)c3)nc2)cc1)Nc1cc(C(F)(F)F)ccn1` [Compound P-0023, 2-[4-[2-[[1-(difluoromethyl)pyrazol-4-yl]amino]pyrimidin-5-yl]phenyl]-N-[4-(trifluoromethyl)-2-pyridyl]acetamide], the pIC50 was 5.00 to 10.00.

Take `COCCn1cc(Nc2ncc(-c3ccc(CC(=O)Nc4cnc(OC)c(C(F)(F)F)c4)c(F)c3)cn2)cn1` [Compound P-0265, 2-[2-fluoro-4-[2-[[1-(2-methoxyethyl)pyrazol-4-yl]amino]pyrimidin-5-yl]phenyl]-N-[6-methoxy-5-(trifluoromethyl)-3-pyridyl]acetamide]: the pIC50 was 5.00 to 10.00.

`O=C(Cc1ccc(-c2cnc(Nc3cnn(C4CC4)c3)nc2)cc1F)Nc1cc(C(F)(F)F)ccn1` [Compound P-0244, 2-[4-[2-[(1-cyclopropylpyrazol-4-yl)amino]pyrimidin-5-yl]-2-fluoro-phenyl]-N-[4-(trifluoromethyl)-2-pyridyl]acetamide]: the pIC50 is 5.00 to 10.00.

Turning to `COc1ncc(NC(=O)Cc2ccc(-c3cnc(Nc4cnn(C)c4)nc3)c(F)c2)cc1C(F)(F)F` [Compound P-0206, 2-[3-fluoro-4-[2-[(1-methylpyrazol-4-yl)amino]pyrimidin-5-yl]phenyl]-N-[6-methoxy-5-(trifluoromethyl)-3-pyridyl]acetamide], the pIC50 was 5.00 to 10.00.

Regarding `COCCn1cc(Nc2ncc(-c3ccc(CC(=O)Nc4ccc(C(F)(F)F)cn4)c(F)c3)cn2)cn1` [Compound P-0269, 2-[2-fluoro-4-[2-[[1-(2-methoxyethyl)pyrazol-4-yl]amino]pyrimidin-5-yl]phenyl]-N-[5-(trifluoromethyl)-2-pyridyl]acetamide], the pIC50 is 5.00 to 10.00.

Consider `O=C(Cc1ccc(-c2cnc(Nc3cnn(C4CC4)c3)nc2)cc1)Nc1cncc(C(F)(F)F)c1` [Compound P-0231, 2-[4-[2-[(1-cyclopropylpyrazol-4-yl)amino]pyrimidin-5-yl]phenyl]-N-[5-(trifluoromethyl)-3-pyridyl]acetamide], for which the pIC50 is 5.00 to 10.00.

For `COc1ncc(NC(=O)Cc2ccc(-c3cnc4[nH]nc(N)c4c3)c(F)c2)cc1C(F)(F)F` [Compound P-0203, 2-[4-(3-amino-1H-pyrazolo[3,4-b]pyridin-5-yl)-3-fluoro-phenyl]-N-[6-methoxy-5-(trifluoromethyl)-3-pyridyl]acetamide], the pIC50 was 5.00 to 10.00.

Take `COc1ncc(NC(=O)Cc2ccc(-c3cnc(Nc4cnn(C5CC5)c4)nc3)cc2)cc1C(F)(F)F` [Compound P-0234, 2-[4-[2-[(1-cyclopropylpyrazol-4-yl)amino]pyrimidin-5-yl]phenyl]-N-[6-methoxy-5-(trifluoromethyl)-3-pyridyl]acetamide]: the negative-log IC50 (pIC50) is 5.00 to 10.00.

Take `Cc1ncc(NC(=O)Cc2ccc(-c3cnc(Nc4cnn(C5CC5)c4)nc3)cc2)cc1C(F)(F)F` [Compound P-0232, 2-[4-[2-[(1-cyclopropylpyrazol-4-yl)amino]pyrimidin-5-yl]phenyl]-N-[6-methyl-5-(trifluoromethyl)-3-pyridyl]acetamide]: the pIC50 is 5.00 to 10.00.

Turning to `COc1ncc(NC(=O)Cc2ccc(-c3cnc4[nH]c(C#CC(C)(C)C)cc4c3)cc2)cc1C(F)(F)F` [Compound P-0219, 2-[4-[2-(3,3-dimethylbut-1-ynyl)-1H-pyrrolo[2,3-b]pyridin-5-yl]phenyl]-N-[6-methoxy-5-(trifluoromethyl)-3-pyridyl]acetamide], the pIC50 is 5.00 to 10.00.

As to `O=C(Cc1ccc(-c2cnc(Nc3cnn(C4CC4)c3)nc2)cc1F)Nc1cncc(C(F)(F)F)c1` [Compound P-0238, 2-[4-[2-[(1-cyclopropylpyrazol-4-yl)amino]pyrimidin-5-yl]-2-fluoro-phenyl]-N-[5-(trifluoromethyl)-3-pyridyl]acetamide], the pIC50 is 5.00 to 10.00.

Regarding `Cc1ncc(NC(=O)Cc2ccc(-c3cnc(Nc4cnn(C(F)F)c4)nc3)cc2)cc1C(F)(F)F` [Compound P-0210, 2-[4-[2-[[1-(difluoromethyl)pyrazol-4-yl]amino]pyrimidin-5-yl]phenyl]-N-[6-methyl-5-(trifluoromethyl)-3-pyridyl]acetamide], the pIC50 is 5.00 to 10.00.

In the case of `CCOc1n[nH]c2ncc(-c3ccc(CC(=O)Nc4cnc(OC)c(C(F)(F)F)c4)cc3F)cc12` [Compound P-0202, 2-[4-(3-ethoxy-1H-pyrazolo[3,4-b]pyridin-5-yl)-3-fluoro-phenyl]-N-[6-methoxy-5-(trifluoromethyl)-3-pyridyl]acetamide], the pIC50 was 5.00 to 10.00.

In the case of `O=C(Cc1ccc(-c2cnc(Nc3cnn(C4CC4)c3)nc2)cc1)Nc1cnc(Cl)c(C(F)(F)F)c1` [Compound P-0233, N-[6-chloro-5-(trifluoromethyl)-3-pyridyl]-2-[4-[2-[(1-cyclopropylpyrazol-4-yl)amino]pyrimidin-5-yl]phenyl]acetamide], the pIC50 is 5.00 to 10.00.

Take `COCCn1cc(Nc2ncc(-c3ccc(CC(=O)Nc4cncc(C(F)(F)F)c4)c(F)c3)cn2)cn1` [Compound P-0267, 2-[2-fluoro-4-[2-[[1-(2-methoxyethyl)pyrazol-4-yl]amino]pyrimidin-5-yl]phenyl]-N-[5-(trifluoromethyl)-3-pyridyl]acetamide]: the pIC50 is 5.00 to 10.00.

Consider `COc1ncc(NC(=O)Cc2ccc(-c3cnc4[nH]nc(Cl)c4c3)cc2)cc1C(F)(F)F` [Compound P-0230, 2-[4-(3-chloro-1H-pyrazolo[3,4-b]pyridin-5-yl)phenyl]-N-[6-methoxy-5-(trifluoromethyl)-3-pyridyl]acetamide], for which the pIC50 is 5.00 to 10.00.

For `O=C(Cc1ccc(-c2cnc(Nc3cnn(C4CC4)c3)nc2)cc1F)Nc1ccc(C(F)(F)F)cn1` [Compound P-0243, 2-[4-[2-[(1-cyclopropylpyrazol-4-yl)amino]pyrimidin-5-yl]-2-fluoro-phenyl]-N-[5-(trifluoromethyl)-2-pyridyl]acetamide], the pIC50 was 5.00 to 10.00.
